The target of test [1] is human NK-2 receptor (Homo sapiens (Human), UniProt P21452). As to the kind of experiment: Selectivity binding assay, human NK-2 ([125I]-Neurokinin A). As to conditions: CHO cell membranes; 0.1 nM [125I]-Neurokinin A; read-out: hNK-2 (Ki). Here is the method:
(§1) Selectivity of the compounds of the invention was determined over the other human NK receptors, namely NK-1 and NK-2 receptors.
The affinity of compounds of the invention for the NK-2 receptor was evaluated in CHO recombinant cells which express the human NK-2 receptor. Membrane suspensions were prepared from these cells. The following radioligand [^125I]-Neurokinin A (PerkinElmer Cat#NEX252) was used in this assay. Binding assays were performed in a 25 mM HEPES/1 mM CaCl2/5 mM MgCl2/0.5% BSA/10 μg/ml saponin, at pH 7.4. Binding assays consisted of 25 μl of membrane suspension (approximately 3.75 μg of protein/well in a 96 well plate), 50 μl of compound or reference ligand (Neurokinin A) at increasing concentrations (diluted in assay buffer) and 0.1 nM [^125I]-Neurokinin A. The plate was incubated 60 min at 25° C. in a water bath and then filtered over GF/C filters (Perkin Elmer, 6005174, presoaked in assay buffer without saponine for 2 h at room temperature) with a Filtration unit (Perkin Elmer). The radioactivity retained on the filters was measured by using the TopCount-NXT reader (Packard). Competition curves were obtained for compounds of the invention and the concentrations of compounds which displaced 50% of bound radioligand (IC50) were determined and then apparent inhibition constant Ki values were calculated by the following equation: Ki=IC50/(1+[L]/KD) where [L] is the concentration of free radioligand and KD is its dissociation constant at the receptor, derived from saturation binding experiments (Cheng and Prusoff, 1973).

Test [2] deals with hERG channel (Homo sapiens (Human), UniProt Q12809). The test can be described thus: hERG inhibition assay (manual patch-clamp, HEK 293 cells). Type of test: cell-based. Conditions: HEK 293 cells stably transfected with hERG, read-out: CardioSafety (hERG IC50). The source says: The human ether-a-go-go related gene (hERG) encodes the inward rectifying voltage gated potassium channel in the heart (IKr) which is involved in cardiac repolarisation. […] IKr current inhibition accounts for the vast majority of known cases of drug-induced QT-prolongation. A number of drugs have been withdrawn from late stage clinical trials due to these cardiotoxic effects, therefore it is important to identify inhibitors early in drug discovery.
The hERG inhibition study aims at quantifying the in vitro effects of compounds of the invention on the potassium-selective IKr current generated in normoxic conditions in stably transfected HEK 293 cells with the human ether-a-go-go-related gene (hERG).
Whole-cell currents (acquisition by manual patch-clamp) elicited during a voltage pulse were recorded in baseline conditions and following application of tested compounds (5 minutes of exposure). The concentrations of tested compounds (0.3 μM; 3 μM; 10 μM; 30 μM) reflect a range believed to exceed the concentrations at expected efficacy doses in preclinical models. […]
The current density recorded were normalized against the baseline conditions and corrected for solvent effect and time-dependent current run-down using experimental design in test compound free conditions. […]
In general terms: The hERG channel carries a current that helps repolarise heart muscle cells.

Test [3] deals with human NK-3 receptor (Homo sapiens (Human), UniProt P29371). The test can be described thus: 3H-SB222200 binding competition assay with human NK-3 receptor. On the procedure: The affinity of compounds of the invention for the human NK-3 receptor was determined by measuring the ability of compounds of the invention to competitively and reversibly displace a well-characterized NK-3 radioligand in a concentration-dependent manner.
^3H-SB222200 Binding Competition Assay with Human NK-3 Receptor
The ability of compounds of the invention to inhibit the binding of the NK-3 receptor selective antagonist ^3H-SB222200 was assessed by an in vitro radioligand binding assay. Membranes were prepared from Chinese hamster ovary recombinant cells stably expressing the human NK-3 receptor. The membranes were incubated with 5 nM ^3H-SB222200 (ARC) in a HEPES 25 mM/NaCl 0.1M/CaCl2 1 mM/MgCl2 5 mM/BSA 0.5%/Saponin 10 μg/ml buffer at pH 7.4 and various concentrations of compounds of the invention. The amount of ^3H-SB222200 bound to the receptor was determined after filtration by the quantification of membrane associated radioactivity using the TopCount-NXT reader (Packard).

In test [4] the target is human NK-1 receptor (Homo sapiens (Human), UniProt P25103). The test can be described thus: Selectivity binding assay, human NK-1 ([3H] substance P). Conditions: CHO cell membranes; 2 nM [3H] substance P; read-out: hNK-1 (Ki). Here is the method: as §1
The affinity of compounds of the invention for the NK-1 receptor was evaluated in CHO recombinant cells which express the human NK-1 receptor. Membrane suspensions were prepared from these cells. The following radioligand: [^3H] substance P (PerkinElmer Cat#NET111520) was used in this assay. Binding assays were performed in a 50 mM Tris/5 mM MnCl2/150 mM NaCl/0.1% BSA at pH 7.4. Binding assays consisted of 25 μl of membrane suspension (approximately 5 μg of protein/well in a 96 well plate), 50 μl of compound or reference ligand (Substance P) at increasing concentrations (diluted in assay buffer) and 2 nM [^3H] substance P. The plate was incubated 60 min at 25° C. in a water bath and then filtered over GF/C filters (Perkin Elmer, 6005174, presoaked in 0.5% PEI for 2 h at room temperature) with a Filtration unit (Perkin Elmer). The radioactivity retained on the filters was measured by using the TopCount-NXT reader (Packard). Competition curves were obtained for compounds of the invention and the concentrations of compounds which displaced 50% of bound radioligand (IC50) were determined and then apparent inhibition constant Ki values were calculated by the following equation: Ki=IC50/(1+[L]/KD) where [L] is the concentration of free radioligand and KD is its dissociation constant at the receptor, derived from saturation binding experiments (Cheng and Prusoff, 1973).

[5] abbreviates: CHO cell membranes, 5 nM 3H-SB222200, Table 2, read-out: Competitive binding assay with human NK-3 receptor hNK-3 (Ki).
Setting [6] is: Table 3 (selectivity table), read-out: hNK-3 (Ki).

pIC50, pKi: −log10 of the molar value. Where two headings read alike, the source gives them in different places.

Sequence of human NK-3 receptor (P29371 whole entry): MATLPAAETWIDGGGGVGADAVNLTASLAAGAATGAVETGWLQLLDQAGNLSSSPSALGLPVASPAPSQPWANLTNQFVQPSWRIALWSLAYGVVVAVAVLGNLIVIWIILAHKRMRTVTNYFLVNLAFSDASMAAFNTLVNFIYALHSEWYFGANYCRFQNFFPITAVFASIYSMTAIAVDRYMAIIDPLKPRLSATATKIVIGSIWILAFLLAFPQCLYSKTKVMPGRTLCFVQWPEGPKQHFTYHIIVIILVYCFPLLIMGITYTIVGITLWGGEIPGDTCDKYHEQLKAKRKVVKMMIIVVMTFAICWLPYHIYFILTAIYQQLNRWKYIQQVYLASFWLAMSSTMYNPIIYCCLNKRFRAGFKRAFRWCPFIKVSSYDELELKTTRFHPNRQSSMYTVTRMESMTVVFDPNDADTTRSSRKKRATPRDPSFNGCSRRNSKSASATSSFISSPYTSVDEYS
Sequence of human NK-1 receptor (P25103 whole entry): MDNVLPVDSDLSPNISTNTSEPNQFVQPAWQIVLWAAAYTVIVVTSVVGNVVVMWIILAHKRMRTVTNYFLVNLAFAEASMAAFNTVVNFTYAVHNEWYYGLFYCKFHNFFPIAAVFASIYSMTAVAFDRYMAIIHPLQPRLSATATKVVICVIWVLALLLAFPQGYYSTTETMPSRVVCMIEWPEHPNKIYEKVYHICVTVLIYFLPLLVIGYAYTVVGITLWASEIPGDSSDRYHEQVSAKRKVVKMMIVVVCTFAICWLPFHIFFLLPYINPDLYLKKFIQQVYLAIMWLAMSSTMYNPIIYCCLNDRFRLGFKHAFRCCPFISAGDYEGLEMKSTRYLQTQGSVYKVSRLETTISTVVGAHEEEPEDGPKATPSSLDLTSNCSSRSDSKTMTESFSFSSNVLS
Sequence of human NK-2 receptor (P21452 whole entry): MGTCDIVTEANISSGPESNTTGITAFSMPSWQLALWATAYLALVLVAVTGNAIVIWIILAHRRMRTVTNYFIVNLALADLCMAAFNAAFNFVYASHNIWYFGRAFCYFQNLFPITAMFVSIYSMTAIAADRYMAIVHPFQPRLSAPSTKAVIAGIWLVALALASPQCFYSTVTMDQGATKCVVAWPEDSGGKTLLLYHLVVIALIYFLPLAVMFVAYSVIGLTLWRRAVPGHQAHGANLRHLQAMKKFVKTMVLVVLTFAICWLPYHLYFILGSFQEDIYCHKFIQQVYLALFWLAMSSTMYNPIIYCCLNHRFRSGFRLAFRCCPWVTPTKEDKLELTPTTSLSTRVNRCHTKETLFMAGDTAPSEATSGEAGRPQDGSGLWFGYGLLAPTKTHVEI
Sequence of hERG channel (Q12809 whole entry): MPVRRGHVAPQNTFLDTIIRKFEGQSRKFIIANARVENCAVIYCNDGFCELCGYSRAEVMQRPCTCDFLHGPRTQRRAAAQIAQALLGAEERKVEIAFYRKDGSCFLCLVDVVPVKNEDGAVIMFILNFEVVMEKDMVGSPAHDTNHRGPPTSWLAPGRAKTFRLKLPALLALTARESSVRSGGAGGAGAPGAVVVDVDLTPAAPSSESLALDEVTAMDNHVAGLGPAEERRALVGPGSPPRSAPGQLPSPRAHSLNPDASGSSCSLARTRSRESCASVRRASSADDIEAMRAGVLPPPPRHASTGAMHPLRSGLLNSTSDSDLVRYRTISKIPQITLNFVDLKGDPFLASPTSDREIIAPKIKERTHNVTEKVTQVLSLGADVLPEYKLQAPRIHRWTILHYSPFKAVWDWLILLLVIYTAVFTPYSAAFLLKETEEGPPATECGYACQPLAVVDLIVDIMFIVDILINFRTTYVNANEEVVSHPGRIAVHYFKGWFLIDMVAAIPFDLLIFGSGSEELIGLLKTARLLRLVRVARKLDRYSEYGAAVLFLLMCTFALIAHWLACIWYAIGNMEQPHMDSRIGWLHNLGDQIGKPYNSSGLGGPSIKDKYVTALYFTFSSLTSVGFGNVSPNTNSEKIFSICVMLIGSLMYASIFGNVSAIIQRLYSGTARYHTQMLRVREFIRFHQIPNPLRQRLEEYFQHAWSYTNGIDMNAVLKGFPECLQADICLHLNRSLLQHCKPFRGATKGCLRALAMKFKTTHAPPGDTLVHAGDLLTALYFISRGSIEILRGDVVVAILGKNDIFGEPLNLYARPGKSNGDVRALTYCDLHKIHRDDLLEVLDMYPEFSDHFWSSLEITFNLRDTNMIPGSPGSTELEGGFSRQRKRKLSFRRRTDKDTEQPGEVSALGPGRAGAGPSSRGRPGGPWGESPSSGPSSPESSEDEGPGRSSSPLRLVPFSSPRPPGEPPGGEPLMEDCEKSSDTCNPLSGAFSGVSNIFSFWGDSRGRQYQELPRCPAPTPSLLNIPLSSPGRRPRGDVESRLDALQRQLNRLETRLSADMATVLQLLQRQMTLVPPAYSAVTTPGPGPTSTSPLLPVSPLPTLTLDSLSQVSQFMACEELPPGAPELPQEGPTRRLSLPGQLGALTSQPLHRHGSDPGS

Broadly, the pKi is −log10 of the Ki, conventionally taken in molar units. By pIC50 is commonly meant the negative decadic logarithm of the IC50, by convention in mol/L. On to `Cc1ccc(-c2nnc3n2CCN(C(=O)c2ccc(F)cc2)[C@@H]3C)o1` [Compound 1, (R)-(4-fluorophenyl)(8-methyl-3-(5-methylfuran-2-yl)-5,6-dihydro-[1,2,4]triazolo[4,3-a]pyrazin-7(8H)-yl)methanone], for which the negative logarithm of the Ki (pKi) is 4.28 in test [1], 7.32 in test [3] (setting [5]), 7.32 in test [3] (setting [6]) and below 4.52 in test [4]. In test [2], the pIC50 is 4.51.

As to `C[C@@H]1c2nnc(-c3csc(C(F)(F)F)n3)n2CCN1C(=O)c1ccc(F)cc1` [Compound 3, (R)-(4-fluorophenyl)(8-methyl-3-(2-(trifluoromethyl)thiazol-4-yl)-5,6-dihydro-[1,2,4]triazolo[4,3-a]pyrazin-7(8H)-yl)methanone], the negative-log Ki (pKi) is 5.18 in test [1], 7.66 in test [3] (setting [5]), 7.66 in test [3] (setting [6]) and below 4.52 in test [4]. Also, the negative logarithm of the IC50 (pIC50) in test [2] was 4.15.

Source of the values: patent US9840508B2, “N-acyl-(3-substituted)-(8-methyl)-5,6-dihydro-[1,2,4]triazolo[4,3-a] pyrazines as selective NK-3 receptor antagonists, pharmaceutical composition, methods for use in NK-3 receptor-mediated disorders” (EUROSCREEN SA, priority 2013, dated 2017).
